This is an account of results in patent US10730875B2, “Substituted imidazo[1,2-A]pyridin-2-ylamine compounds, and pharmaceutical compositions and methods of use thereof” (JN Therapeutics, priority 2015, dated 2020).

As a reminder, the IC50 is the concentration that gives 50% inhibition.

The target in the assay is JAK1 (Homo sapiens (Human), UniProt P23458). Description: Cellular JAK1 assay: IL-6-mediated STAT3 phosphorylation in TF-1 cells. In kind it is cell-based. The conditions noted are these: IL-6 stimulation, STAT3 phosphorylation at Tyr705 (AlphaLISA), read-out: Inhibitory Activity Against JAK1 IC50. The protocol:
The cellular potency of a compound on JAK1 or JAK2 inhibition is determined by measuring the cytokine-mediated phosphorylation of STAT proteins in TF-1 cells.
Human cytokines of IL-6 (R&D Systems, Cat. No. 206-IL-010/CF) and GM-CSF (R&D Systems, Cat. No. 215-GM-010/CF) are reconstituted at 10 μg/mL in D-PBS containing 0.1% BSA (Sigma, Cat. No. A8577) and human EPO (R&D Systems, Cat. No. 287-TC-500) at 500 U/mL in D-PBS containing 0.1% BSA. TF-1 cells (ATCC, CRL-2003) were grown in RPMI1640 (ATCC, Cat. No. 30-2001) supplemented with 2 ng/mL of recombinant human GM-CSF, 10% FBS (Gibco, Cat. No. 10437-028), and 100 U/mL penicillin-streptomycin (Gibco, Cat. No. 15140-122). The cells were maintained and propagated between 1×10^5 cells/mL to 7.5×10^5 cells/mL. Aliquots of the cells from early passages were preserved for liquid nitrogen storage. Frozen vials of the cells were thawed at 37° C. water bath. The cells were spun to remove freezing medium. The newly revived frozen cells were adapted in culture for 5-7 days before used for compound testing. The cells used in for compound testing were less than 20 subculture passages or 3 months in culture.
To test compounds, the TF-1 cells were harvested at a density of 3 to 7×10^5 cells/mL by centrifugation. After removing the culture medium, the resulting cell pellet was suspended and washed once by centrifugation with HBSS buffer (Gibco, Cat. No. 14025-092) containing 0.1% BSA. The cell pellet was resuspended in HBSS buffer at 7.5×10^6 cells/mL. Four micro-liters of the cells (3×10^4 cells in total) were added to each well of a white 384-well plate (Packard, Cat. No. 6005214).
The compounds were first diluted in dimethylsulfoxide (DMSO) (Sigma, Cat. No. D2650) to generate 9 3-fold diluted dosing concentrations in a 96-well polypropylene plate (Corning, Cat. No. 3365), followed by addition of HBSS buffer for another 125-fold dilution. To the cells, 2 μL of the diluted compounds were added and mixed by tapping the plate several times. The cells were incubated for 2 hrs of treatment. DMSO was used as a control and similarly diluted along and added to the cells.
To assay JAK1 inhibition, 2 μL of IL-6 diluted at 400 ng/mL (4×) in HBSS containing 0.1% BSA was added to the treated cells. The cells were then incubated for 30 min of cytokine treatment and lysed at the end by addition of 2 μL of 5×AlphaLISA SureFire Ultra lysis buffer from Perkin Elmer. The plate was agitated on a plate shaker for 10 min at room temperature. The cellular JAK1 activity was determined by measuring STAT3 phosphorylation at Tyr705 in lysates using the AlphaLISA SureFire Ultra kit (Perkin Elmer, Cat. No. ALSU-PST3-A500). A volume of 5 μL of acceptor mix and donor mix was added sequentially to lysates following the product protocol. The assay signals were recorded on EnVision plate reader (Perkin Elmer) with AlphaScreen optics setting.
The results are summarized in Table 3, where A represents a value no greater than 500 nM, B represents a value greater than 500 nM but no greater than 1 μM, C represents a value greater than 1 μM but no greater than 5 μM, and D represents a value greater than 5 μM.
In general terms: Bead proximity is the source of the signal in Alpha formats.

Chain of JAK1 (P23458 whole entry): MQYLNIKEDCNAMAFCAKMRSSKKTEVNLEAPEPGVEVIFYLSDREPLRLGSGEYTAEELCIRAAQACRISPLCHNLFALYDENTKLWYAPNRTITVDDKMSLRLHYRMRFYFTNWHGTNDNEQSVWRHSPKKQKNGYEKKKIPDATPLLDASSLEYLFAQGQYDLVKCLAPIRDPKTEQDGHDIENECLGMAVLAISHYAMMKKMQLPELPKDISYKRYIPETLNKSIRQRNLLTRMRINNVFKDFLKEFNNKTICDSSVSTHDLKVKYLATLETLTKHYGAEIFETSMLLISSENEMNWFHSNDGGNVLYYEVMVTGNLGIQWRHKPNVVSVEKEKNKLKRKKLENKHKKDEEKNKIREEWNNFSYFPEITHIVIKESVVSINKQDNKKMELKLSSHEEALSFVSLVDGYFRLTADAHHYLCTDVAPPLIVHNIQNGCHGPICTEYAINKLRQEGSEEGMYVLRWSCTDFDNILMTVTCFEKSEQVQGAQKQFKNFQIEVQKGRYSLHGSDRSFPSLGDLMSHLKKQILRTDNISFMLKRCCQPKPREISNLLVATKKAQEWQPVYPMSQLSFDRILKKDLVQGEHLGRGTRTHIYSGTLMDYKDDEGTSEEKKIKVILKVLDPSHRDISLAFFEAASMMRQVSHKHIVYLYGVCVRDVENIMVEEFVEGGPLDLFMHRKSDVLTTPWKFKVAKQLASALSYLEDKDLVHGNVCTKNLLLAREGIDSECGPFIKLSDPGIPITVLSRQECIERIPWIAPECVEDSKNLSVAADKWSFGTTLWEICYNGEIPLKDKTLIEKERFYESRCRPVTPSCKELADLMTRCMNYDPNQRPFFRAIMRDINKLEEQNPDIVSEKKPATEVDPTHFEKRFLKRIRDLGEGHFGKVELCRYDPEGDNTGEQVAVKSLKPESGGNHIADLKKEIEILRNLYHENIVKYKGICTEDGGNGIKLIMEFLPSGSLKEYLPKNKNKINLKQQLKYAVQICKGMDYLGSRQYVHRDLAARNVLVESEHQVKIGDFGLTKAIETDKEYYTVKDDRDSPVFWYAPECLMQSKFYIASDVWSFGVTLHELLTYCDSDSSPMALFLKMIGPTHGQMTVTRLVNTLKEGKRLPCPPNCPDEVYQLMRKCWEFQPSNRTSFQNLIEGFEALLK

Regarding `O=C(Nc1cn2c(-c3ccc(CN4CCS(=O)(=O)CC4)cc3F)cccc2n1)C1CC1` [Compound 14], the IC50 was ≤ 500 nM.
